Test results reported in patent publication US5637731A (priority 1996, dated 1997).
Structures can show the parent of a compound that is named as a salt. Where two headings read alike, the source gives them in different places.

What was measured:
[1] = tested on: peripheral acetylcholine-like effects; assay: Side effect profile: in vivo overt effects (salivation, tremor, diarrhea) after oral administration; set-up: species or system rat; details: (rat) po
From the text: The use of the radioligand binding assays (^3 H-QNB and ^3 H-CD) to characterize the hydroxylated oxotremorine derivatives provides a useful first approximation for,the evaluation of the muscarinic agonist-like profile of a test compound. However, in using a prodrug methodology, intrinsic activity will not be observed until in vivo hydrolysis or metabolism to the active compound occurs. Therefore, radioligand binding data, performed on the carbonyl derivatives, will not provide leading information. As a result, the observed overt effects after oral administration to rats of the test carbonyl derivative, relative to its corresponding hydroxylated oxotremorine compound, became the primary in vivo pharmacological measure. These in vivo overt effects are attributed to the peripheral acetylcholine-like effects of the compound, such as salivation, tremor and diarrhea. The in vivo overt effects also providing dosing information for the behavioral tests of cognitive improvement.

[2] = target: muscarinic cholinergic receptor; type: binding, rat; details: rat cerebral cortex, ^3 H-QNB 0.25 nM, 25° C., 120 minutes, pH 7.4
[3] = target: muscarinic cholinergic receptor; assay: [^3 H]-Cis-methyldioxolane (^3 H-CD) Binding Assay (High Affinity); details: rat cerebral cortex, ^3 H-CD 1.0 nM, 25° C., 120 minutes, pH 7.4; high affinity agonist binding

Row | Structure (SMILES) | Side Effect Profile minimum effective dose (MED) [1] | Ki [2] | Ki [3]
1 | CCNC(=O)O[C@H]1CCN(CC#CCN2CCCC2)C1=O [(S)-Ethylcarbamic acid 2-oxo-1-[4-(1-pyrrolidinyl)-2-butynyl]-3-pyrrolidinyl ester] | > 490 μ mol/kg |  | 
2 | CCCCCCCCNC(=O)O[C@H]1CCN(CC#CCN2CCCC2)C1=O [(S)-Octylcarbamic acid 2-oxo-1-[4-(1-pyrrolidinyl)-2-butynyl]-3-pyrrolidinyl ester] | > 450 μ mol/kg |  | 
3 | CCCCCCCC(=O)O[C@@H]1CCN(CC#CCN2CCCC2)C1=O [(R)-Octanoic acid 2-oxo-1-[4-(1-pyrrolidinyl)-2-butynyl]-3-pyrrolidinyl ester] | 14 μ mol/kg |  | 
4 | CCCCNC(=O)O[C@H]1CCN(CC#CCN2CCCC2)C1=O [(S)-Butylcarbamic acid 1-2-oxo-[4-(1-pyrrolidinyl)-2-butynyl]-3-pyrrolidinyl ester] | 225 μ mol/kg |  | 
5 | CCCCCCOC(=O)O[C@@H]1CCN(CC#CCN2CCCC2)C1=O [(R)-2-Oxo-1-[4-(1-pyrrolidinyl)-2-butynyl]-3-pyrrolidinyl carbonic acid hexyl ester] | 7 μ mol/kg |  | 
6 | CCOC(=O)O[C@H]1CCN(CC#CCN2CCCC2)C1=O [(S)-2-Oxo-1-[4-(1-pyrrolidinyl)-2-butynyl]-3-pyrrolidinyl carbonic acid ethyl ester] | 1.7 μ mol/kg |  | 
7 | CCCCCCCCCC(=O)O[C@H]1CCN(CC#CCN2CCCC2)C1=O [(S)-Decanoic acid 2-oxo-1-[4-(1-pyrrolidinyl)-2-butynyl]-3-pyrrolidinyl ester] | 14 μ mol/kg |  | 
8 | CCCCNC(=O)O[C@@H]1CCN(CC#CCN2CCCC2)C1=O [(R)-Butylcarbamic acid 2-oxo-1-[4-(1-pyrrolidinyl)-2-butynyl]-3-pyrrolidinyl ester] | > 243 μ mol/kg |  | 
9 | CCCCCCNC(=O)O[C@@H]1CCN(CC#CCN2CCCC2)C1=O [(R)-Hexylcarbamic acid 2-oxo-1-[4-(1-pyrrolidinyl)-2-butynyl]-3-pyrrolidinyl ester] | > 450 μ mol/kg |  | 
10 | CCCC(=O)O[C@H]1CCN(CC#CCN2CCCC2)C1=O [(S)-Butanoic acid 2-oxo-1-[4-(1-pyrrolidinyl)-2-butynyl]-3-pyrrolidinyl ester] | 1.7 μ mol/kg |  | 
11 | CCCCCC(=O)O[C@@H]1CCN(CC#CCN2CCCC2)C1=O [(R)-Hexanoic acid 2-oxo-1-[4-(1-pyrrolidinyl)-2-butynyl]-3-pyrrolidinyl ester] | 7.0 μ mol/kg |  | 
12 | CCNC(=O)O[C@H]1CCN(CC#CCN(C)C)C1=O [(S)-Ethylcarbamic acid 1-[4-(dimethylamino)-2-butynyl]-2-oxo-3-pyrrolidinyl ester] | > 510 μ mol/kg |  | 
13 | CCCC(=O)O[C@@H]1CCN(CC#CCN2CCCC2)C1=O [(R)-Butanoic acid 2-oxo-1-[4-(1-pyrrolidinyl)-2-butynyl]-3-pyrrolidinyl ester] | 7.2 μ mol/kg |  | 
14 | CCNC(=O)O[C@@H]1CCN(CC#CCN(C)C)C1=O [(R)-Ethylcarbamic acid 1-[4-(dimethylamino)-2-butynyl]-2-oxo-3-pyrrolidinyl ester] | > 510 μ mol/kg |  | 
15 | CCCCCCNC(=O)O[C@H]1CCN(CC#CCN(C)C)C1=O [(S)-Hexylcarbamic acid 1-[4-(dimethylamino)-2-butynyl]-2-oxo-3-pyrrolidinyl ester] | > 510 μ mol/kg |  | 
16 | CCCCCCCCNC(=O)O[C@H]1CCN(CC#CCN(C)C)C1=O [(S)-Octylcarbamic acid 1-[4-(dimethylamino)-2-butynyl]-2-oxo-3-pyrrolidinyl ester] | > 520 μ mol/kg |  | 
17 | CCCCNC(=O)O[C@@H]1CCN(CC#CCN(C)C)C1=O [(R)-Butylcarbamic acid 1-[4-(dimethylamino)-2-butynyl]-2-oxo-3-pyrrolidinyl ester] | > 340 μ mol/kg |  | 
18 | CCCCCC(=O)O[C@H]1CCN(CC#CCN(C)C)C1=O [(S)-Hexanoic acid 1-[4-(dimethylamino)-2-butynyl]-2-oxo-3-pyrrolidinyl ester] | 5.9 μ mol/kg |  | 
19 | CCCCCCCCOC(=O)O[C@H]1CCN(CC#CCN2CCCC2)C1=O [(S)-2-Oxo-1-[4-(1-pyrrolidinyl)-2-butynyl]-3-pyrrolidinyl carbonic acid octyl ester] | 28 μ mol/kg |  | 
20 | CCCCOC(=O)O[C@@H]1CCN(CC#CCN2CCCC2)C1=O [(R)-2-Oxo-1-[4-(1-pyrrolidinyl)-2-butynyl]-3-pyrrolidinyl carbonic acid butyl ester] | 14 μ mol/kg |  | 
21 | CCCCCCNC(=O)O[C@H]1CCN(CC#CCN2CCCC2)C1=O [(S)-Hexylcarbamic acid 2-oxo-1-[4-(1-pyrrolidinyl)-2-butynyl]-3-pyrrolidinyl ester] | > 450 μ mol/kg |  | 

Row | Structure (SMILES) | Side Effect Profile minimum effective dose (MED) [1] | Ki [2] | Ki [3]
22 | CCCCOC(=O)O[C@H]1CCN(CC#CCN2CCCC2)C1=O [(S)-2-Oxo-1-[4-(1-pyrrolidinyl)-2-butynyl]-3-pyrrolidinyl carbonic acid butyl ester] | 0.9 μ mol/kg |  | 
23 | CCCCCCCC(=O)O[C@H]1CCN(CC#CCN2CCCC2)C1=O | 14 μ mol/kg |  | 
24 | CCCC(=O)O[C@H]1CCN(CC#CCN(C)C)C1=O [(S)-Butanoic acid 1-[4-(dimethylamino)-2-butynyl]-2-oxo-3-pyrrolidinyl ester] | 8.0 μ mol/kg |  | 
25 | CCNC(=O)O[C@@H]1CCN(CC#CCN2CCCC2)C1=O [(R)-Ethylcarbamic acid 2-oxo-1-[4-(1-pyrrolidinyl)-2-butynyl]-3-pyrrolidinyl ester] | 28 μ mol/kg |  | 
26 | CCCCNC(=O)O[C@H]1CCN(CC#CCN(C)C)C1=O [(S)-Butylcarbamic acid 1-[4-(dimethylamino)-2-butynyl]-2-oxo-3-pyrrolidinyl ester] | > 493 μ mol/kg |  | 
27 | CCCCCCNC(=O)O[C@@H]1CCN(CC#CCN(C)C)C1=O [(R)-Hexylcarbamic acid 1-[4-(dimethylamino)-2-butynyl]-2-oxo-3-pyrrolidinyl ester] | > 530 μ mol/kg |  | 
28 | CN(C)CC#CCN1CC[C@@H](N)C1=O [(R)-3-Amino-1-[4-(dimethylamino)-2-butynyl]-2-pyrrolidinone dihydrochloride] |  | > 100 µM | 0.89 µM
29 | CCCCCCCCNC(=O)O[C@@H]1CCN(CC#CCN(C)C)C1=O [(R)-Octylcarbamic acid 1-[4-(dimethylamino)-2-butynyl]-2-oxo-2-pyrrolidinyl ester] |  | 32 µM | 1.43 µM
30 | CC1CCN(CC#CCn2ccnc2)C1=O (racemic) [Racemic 1-[4-(1H-imidazol-1-yl)-2-butynyl]-3-methyl-2-pyrrolidinone] |  | 6.7 µM | 0.057 µM
31 | CC1CCN(CC#CCN(C)C)C1=O (racemic) [Racemic 1-[4-(1-Dimethylamino)-2-butynyl]-3-methyl-2-pyrrolidinone] |  | 21 µM | 0.41 µM
32 | CC(C)(C)[Si](C)(C)OC[C@@H]1CCCN1CC#CCNC(=O)C(F)(F)F [(S)-N-[4-[2-[[[(1,1-Dimethylethyl]-dimethylsilyl]oxy]-methyl]-1-pyrrolidinyl]-2-butynyl]-2,2,2-trifluoroacetamide] |  | > 100 µM | 41.4 µM
33 | CN(C)CC#CCN1CC[C@H](N=[N+]=[N-])C1=O [(S)-3-Azido-1-[4-(dimethylamino)-2-butynyl]-2-pyrrolidinone] |  | > 100 µM | 0.63 µM
34 | CN(C)CC#CCN1CC[C@@H](N=[N+]=[N-])C1=O [(R)-3-Azido-1-[4-(dimethylamino)-2-butynyl]-2-pyrrolidinone] |  | > 100 µM | 0.5 µM
35 | CNC(=O)O[C@H]1CCN(CC#CCN2CCCC2)C1=O [(S)-3-[[Methylamino)carbonyl]oxy]-1-[4-(1-pyrrolidinyl)-2-butynyl]-2-pyrrolidinone] |  | 433 µM | > 100 µM
36 | COC(=O)O[C@H]1CCN(CC#CCN(C)C)C1=O [(S)-Carbonic acid 1-[4-(dimethylamino)-2-butynyl]-2-oxo-3-pyrrolidinyl methyl ester] |  | 15.1 µM | 2.16 µM
37 | CC(C)(C)[Si](C)(C)O[C@H]1CCN(CC#CCn2ccnc2)C1=O [(S)-3-[[(1,1-Dimethylethyl)dimethylsilyl]oxy]-1-[4-(1H-imidazol-1-yl)-2-butynyl]-2-pyrrolidinone] |  | > 100 µM | 24.3 µM
38 | CC(C)(C)[Si](C)(C)O[C@H]1CCN(CC#CCN2CCC2)C1=O [(S)-1-[4-(1-Azetidinyl)-2-butynyl]-3-[[(1,1-dimethylethyl)-dimethylsilyl]oxy]-2-pyrrolidinone] |  | 5.8 µM | 5.6 µM
39 | C[C@H]1CCN(CC#CCN(C)C)C1=O [(S)-1-[4-(Dimethylamino)-2-butynyl]-3-methyl-2-pyrrolidinone] |  | 35.5 µM | 0.68 µM
40 | C[N+](C)(C)CC#CCN1CC[C@@H](N=[N+]=[N-])C1=O [(R)-4-(3-Azido-2-oxo-1-pyrrolidinyl)-N,N,N-trimethyl-2-butyn-1-aminium iodide] |  | 0.8 µM | 0.039 µM
41 | CC(=O)O[C@H]1CCN(CC#CCN2CCC[C@H]2CO[Si](C)(C)C(C)(C)C)C1=O [[S-(R*,R*)]-3-(Acetyloxy)-1-[4-[2-[[[(1,1-dimethylethyl)-dimethylsilyl]oxy]methyl]-1-pyrrolidinyl]-2-butynyl]-2-pyrrolidinone] |  | 2.6 µM | 0.079 µM
